Experiments:
Assay type in all cases: in vivo
[1] = system: ragweed (common ragweed, Ambrosia elatior); assay: Test A preemergence, ragweed; settings: Preemergence, 0 to 100 scale (0 no effect, 100 complete control)
Outline: (§1)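 Visual injury rating versus untreated controls on a 0 to 100 scale (0 = no effect, 100 = complete control), taken about 10 days after treatment in the greenhouse. Preemergence: directed soil spray over seeded loam–sand. Postemergence: spray on one- to two-leaf plants, 2 to 10 cm tall.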

[2] = system: ragweed (common ragweed, Ambrosia elatior); assay: Test A postemergence, ragweed; settings: postemergence, 0 to 100 scale, 0 is no effect, 100 is complete control, approximately 10 days
Outline: as §1

[3] = system: sedge, umbrella (small-flower umbrella sedge, Cyperus difformis); assay: Test B flooded paddy test, umbrella sedge; settings: 250 g ai/ha, Flood; visual rating after 13 to 15 days; scale 0 to 100, 0 is no effect, 100 is complete control
Outline: (§2)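 Visual injury scored 0 (no effect) to 100 (complete control) relative to controls 13-15 days after treatment in greenhouse. Treatment: test compound added into paddy water of pots flooded 3 cm over soil, holding 2-leaf-stage plants; water level kept constant.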

[4] = system: barnyardgrass (Echinochloa crus-galli); assay: Test B flooded paddy test, barnyardgrass; settings: 250 g ai/ha, Flood; visual rating after 13 to 15 days; scale 0 to 100, 0 is no effect, 100 is complete control
Outline: as §2

[5] = system: pigweed (Amaranthus retroflexus); assay: Test A postemergence, pigweed; settings: postemergence, 0 to 100 scale, 0 is no effect, 100 is complete control, approximately 10 days
Outline: as §1

[6] = system: barnyardgrass (Echinochloa crus-galli); assay: Test A preemergence, barnyardgrass; settings: Preemergence, 0 to 100 scale (0 no effect, 100 complete control)
Outline: as §1

[7] = system: galium (catchweed bedstraw, Galium aparine); assay: Test A postemergence, galium; settings: postemergence, 0 to 100 scale, 0 is no effect, 100 is complete control, approximately 10 days
Outline: as §1

[8] = system: blackgrass (Alopecurus myosuroides); assay: Test A postemergence, blackgrass; settings: postemergence, 0 to 100 scale, 0 is no effect, 100 is complete control, approximately 10 days
Outline: as §1

[9] = system: foxtail, giant (giant foxtail, Setaria faberii); assay: Test A postemergence, giant foxtail; settings: postemergence, 0 to 100 scale, 0 is no effect, 100 is complete control, approximately 10 days
Outline: as §1

[10] = system: pigweed (Amaranthus retroflexus); assay: Test A preemergence, pigweed; settings: Preemergence, 0 to 100 scale (0 no effect, 100 complete control)
Outline: as §1

[11] = system: ducksalad (Heteranthera limosa); assay: Test B flooded paddy test, ducksalad; settings: 250 g ai/ha, Flood; visual rating after 13 to 15 days; scale 0 to 100, 0 is no effect, 100 is complete control
Outline: as §2

[12] = system: barnyardgrass (Echinochloa crus-galli); assay: Test A postemergence, barnyardgrass; settings: postemergence, 0 to 100 scale, 0 is no effect, 100 is complete control, approximately 10 days
Outline: as §1

kochia (Kochia scoparia) [13] = assay: Test A preemergence, kochia; settings: Preemergence, 0 to 100 scale (0 no effect, 100 complete control)
Outline: as §1

[14] = system: wheat (Triticum aestivum); assay: Test A postemergence, wheat; settings: postemergence, 0 to 100 scale, 0 is no effect, 100 is complete control, approximately 10 days
Outline: as §1

corn (Zea mays) = assay: Test A postemergence, corn; settings: postemergence, 0 to 100 scale, 0 is no effect, 100 is complete control, approximately 10 days
Outline: as §1

[15] = system: foxtail, giant (giant foxtail, Setaria faberii); assay: Test A preemergence, giant foxtail; settings: Preemergence, 0 to 100 scale (0 no effect, 100 complete control)
Outline: as §1

kochia (Kochia scoparia) [16] = assay: Test A postemergence, kochia; settings: postemergence, 0 to 100 scale, 0 is no effect, 100 is complete control, approximately 10 days
Outline: as §1

[17] = system: ryegrass, Italian (Italian ryegrass, Lolium multiflorum); assay: Test A preemergence, Italian ryegrass; settings: Preemergence, 0 to 100 scale (0 no effect, 100 complete control)
Outline: as §1

[18] = system: ryegrass, Italian (Italian ryegrass, Lolium multiflorum); assay: Test A postemergence, Italian ryegrass; settings: postemergence, 0 to 100 scale, 0 is no effect, 100 is complete control, approximately 10 days
Outline: as §1

rice (Oryza sativa) = assay: Test B flooded paddy test, rice; settings: 250 g ai/ha, Flood; visual rating after 13 to 15 days; scale 0 to 100, 0 is no effect, 100 is complete control
Outline: as §2

SMILES | Plant response rating, Ragweed ([1]; 125 g ai/ha) | Plant response rating, Ragweed ([2]; 125 g ai/ha) | Plant response rating, Sedge, Umbrella [3] | Plant response rating, Barnyardgrass [4] | Plant response rating, Pigweed ([5]; 125 g ai/ha) | Plant response rating, Barnyardgrass ([6]; 125 g ai/ha) | Plant response rating, Galium ([7]; 125 g ai/ha) | Plant response rating, Blackgrass ([8]; 125 g ai/ha) | Plant response rating, Foxtail, Giant ([9]; 125 g ai/ha) | Plant response rating, Pigweed ([10]; 125 g ai/ha) | Plant response rating, Ducksalad [11] | Plant response rating, Barnyardgrass ([12]; 125 g ai/ha) | Plant response rating, Kochia (kochia (Kochia scoparia) [13]; 125 g ai/ha) | Plant response rating, Wheat ([14]; 125 g ai/ha) | Plant response rating, Corn (corn (Zea mays); 125 g ai/ha) | Plant response rating, Foxtail, Giant ([15]; 125 g ai/ha) | Plant response rating, Kochia (kochia (Kochia scoparia) [16]; 125 g ai/ha) | Plant response rating, Ryegrass, Italian ([17]; 125 g ai/ha) | Plant response rating, Ryegrass, Italian ([18]; 125 g ai/ha) | Plant response rating, Rice (rice (Oryza sativa)) | other results
Fc1cccc(Oc2ncc(Cl)cn2)c1OC/C=C/C(F)(F)F [Compound 25] | 0 | 0 | 75 | 0 | 50 | 90 | 50 | 20 | 30 | 100 | 100 | 40 | 30 | 0 | 10 | 100 | 90 | 60 | 0 | 0 | Plant response rating, Ragweed ([1]; 500 g ai/ha): 20; Plant response rating, Ragweed ([2]; 500 g ai/ha): 0; Plant response rating, Pigweed ([5]; 500 g ai/ha): 70; Plant response rating, Barnyardgrass ([6]; 500 g ai/ha): 100; Plant response rating, Galium ([7]; 500 g ai/ha): 100; Plant response rating, Blackgrass ([8]; 500 g ai/ha): 80; Plant response rating, Foxtail, Giant ([9]; 500 g ai/ha): 80; Plant response rating, Pigweed ([10]; 500 g ai/ha): 100; Plant response rating, Barnyardgrass ([12]; 500 g ai/ha): 90; Plant response rating, Kochia (kochia (Kochia scoparia) [13]; 500 g ai/ha): 100; Plant response rating, Wheat ([14]; 500 g ai/ha): 20; Plant response rating, Corn (corn (Zea mays); 500 g ai/ha): 20; Plant response rating, Foxtail, Giant ([15]; 500 g ai/ha): 100; Plant response rating, Kochia (kochia (Kochia scoparia) [16]; 500 g ai/ha): 100; Plant response rating, Ryegrass, Italian ([17]; 500 g ai/ha): 100; Plant response rating, Ryegrass, Italian ([18]; 500 g ai/ha): 70
FCCCOc1c(F)cccc1Oc1ncc(Cl)cn1 [Compound 26] | 0 | 0 | 0 | 0 | 60 | 40 | 70 | 0 | 10 | 90 | 30 | 10 | 10 | 0 | 0 | 50 | 60 | 0 | 0 | 0 | Plant response rating, Ragweed ([1]; 500 g ai/ha): 20; Plant response rating, Ragweed ([2]; 500 g ai/ha): 20; Plant response rating, Pigweed ([5]; 500 g ai/ha): 90; Plant response rating, Barnyardgrass ([6]; 500 g ai/ha): 100; Plant response rating, Galium ([7]; 500 g ai/ha): 50; Plant response rating, Blackgrass ([8]; 500 g ai/ha): 50; Plant response rating, Foxtail, Giant ([9]; 500 g ai/ha): 70; Plant response rating, Pigweed ([10]; 500 g ai/ha): 100; Plant response rating, Barnyardgrass ([12]; 500 g ai/ha): 60; Plant response rating, Kochia (kochia (Kochia scoparia) [13]; 500 g ai/ha): 100; Plant response rating, Wheat ([14]; 500 g ai/ha): 0; Plant response rating, Corn (corn (Zea mays); 500 g ai/ha): 10; Plant response rating, Foxtail, Giant ([15]; 500 g ai/ha): 100; Plant response rating, Kochia (kochia (Kochia scoparia) [16]; 500 g ai/ha): 90; Plant response rating, Ryegrass, Italian ([17]; 500 g ai/ha): 20; Plant response rating, Ryegrass, Italian ([18]; 500 g ai/ha): 0
Fc1cccc(Oc2ncc(Cl)cn2)c1OCCCC(F)(F)F [Compound 27] | 0 | 0 | 70 | 0 | 50 | 90 | 30 | 30 | 20 | 90 | 90 | 50 | 70 | 0 | 0 | 80 | 80 | 40 | 0 | 0 | Plant response rating, Ragweed ([1]; 500 g ai/ha): 20; Plant response rating, Ragweed ([2]; 500 g ai/ha): 10; Plant response rating, Pigweed ([5]; 500 g ai/ha): 60; Plant response rating, Barnyardgrass ([6]; 500 g ai/ha): 100; Plant response rating, Galium ([7]; 500 g ai/ha): 90; Plant response rating, Blackgrass ([8]; 500 g ai/ha): 60; Plant response rating, Foxtail, Giant ([9]; 500 g ai/ha): 80; Plant response rating, Pigweed ([10]; 500 g ai/ha): 100; Plant response rating, Barnyardgrass ([12]; 500 g ai/ha): 80; Plant response rating, Kochia (kochia (Kochia scoparia) [13]; 500 g ai/ha): 100; Plant response rating, Wheat ([14]; 500 g ai/ha): 10; Plant response rating, Corn (corn (Zea mays); 500 g ai/ha): 10; Plant response rating, Foxtail, Giant ([15]; 500 g ai/ha): 100; Plant response rating, Kochia (kochia (Kochia scoparia) [16]; 500 g ai/ha): 100; Plant response rating, Ryegrass, Italian ([17]; 500 g ai/ha): 90; Plant response rating, Ryegrass, Italian ([18]; 500 g ai/ha): 30
Fc1cccc(Oc2ncc(Cl)cn2)c1OCCC(F)(F)F [Compound 29] | 0 | 0 | 0 | 0 | 50 | 70 | 20 | 0 | 20 | 100 | 50 | 20 | 40 | 0 | 0 | 70 | 40 | 10 | 0 | 0 | Plant response rating, Ragweed ([1]; 500 g ai/ha): 20; Plant response rating, Ragweed ([2]; 500 g ai/ha): 10; Plant response rating, Pigweed ([5]; 500 g ai/ha): 100; Plant response rating, Barnyardgrass ([6]; 500 g ai/ha): 100; Plant response rating, Galium ([7]; 500 g ai/ha): 50; Plant response rating, Blackgrass ([8]; 500 g ai/ha): 50; Plant response rating, Foxtail, Giant ([9]; 500 g ai/ha): 80; Plant response rating, Pigweed ([10]; 500 g ai/ha): 100; Plant response rating, Barnyardgrass ([12]; 500 g ai/ha): 70; Plant response rating, Kochia (kochia (Kochia scoparia) [13]; 500 g ai/ha): 100; Plant response rating, Wheat ([14]; 500 g ai/ha): 20; Plant response rating, Corn (corn (Zea mays); 500 g ai/ha): 10; Plant response rating, Foxtail, Giant ([15]; 500 g ai/ha): 100; Plant response rating, Kochia (kochia (Kochia scoparia) [16]; 500 g ai/ha): 80; Plant response rating, Ryegrass, Italian ([17]; 500 g ai/ha): 70; Plant response rating, Ryegrass, Italian ([18]; 500 g ai/ha): 20
N#Cc1cccc(Oc2ncc(F)cn2)c1OCCCF [Compound 30] | 30 | 10 | 40 | 0 | 0 | 20 | 0 | 0 | 0 | 80 | 30 | 10 | 90 | 0 | 0 | 30 | 10 | 20 | 40 | 0 | Plant response rating, Ragweed ([1]; 31 g ai/ha): 20; Plant response rating, Ragweed ([2]; 31 g ai/ha): 0; Plant response rating, Pigweed ([5]; 31 g ai/ha): 0; Plant response rating, Barnyardgrass ([6]; 31 g ai/ha): 0; Plant response rating, Galium ([7]; 31 g ai/ha): 0; Plant response rating, Blackgrass ([8]; 31 g ai/ha): 0; Plant response rating, Foxtail, Giant ([9]; 31 g ai/ha): 0; Plant response rating, Pigweed ([10]; 31 g ai/ha): 50; Plant response rating, Barnyardgrass ([12]; 31 g ai/ha): 0; Plant response rating, Kochia (kochia (Kochia scoparia) [13]; 31 g ai/ha): 90; Plant response rating, Wheat ([14]; 31 g ai/ha): 0; Plant response rating, Corn (corn (Zea mays); 31 g ai/ha): 0; Plant response rating, Foxtail, Giant ([15]; 31 g ai/ha): 10; Plant response rating, Kochia (kochia (Kochia scoparia) [16]; 31 g ai/ha): 0; Plant response rating, Ryegrass, Italian ([17]; 31 g ai/ha): 0; Plant response rating, Ryegrass, Italian ([18]; 31 g ai/ha): 30
